How the values were obtained:
Test in all cases: ProQinase radiometric kinase panel
Conditions in all cases: mean of 2 exp.
EGF-R = EGF-R (Homo sapiens, UniProt P00533)
DMPK = DMPK (Homo sapiens, UniProt Q09013)
VRK1 = VRK1 (Homo sapiens, UniProt Q99986)
MAP4K4 = MAP4K4 (Homo sapiens, UniProt O95819)
LCK = LCK (Homo sapiens, UniProt P06239)
Method: Gini coefficients were calculated and the Lorenz curve (Fig 3B) was plotted by applying the Microsoft Excel spreadsheet provided by Graczyk [44].
radiometric protein kinase assays.

YES = YES (Homo sapiens, UniProt P07947)
CAMK2A = CAMK2A (Homo sapiens, UniProt Q9UQM7)
CSF1-R = CSF1-R (Homo sapiens, UniProt P07333)
INSR-R = INSR-R (Homo sapiens, UniProt P14616)
ROCK1 = ROCK1 (Homo sapiens, UniProt Q13464)
MAP3K1 = MAP3K1 (Homo sapiens, UniProt Q13233)
WEE1 = WEE1 (Homo sapiens, UniProt P30291)
EPHB2 = EPHB2 (Homo sapiens, UniProt P29323)
Aurora-B = Aurora-B (Homo sapiens, UniProt Q96GD4)
IKK-alpha = IKK-alpha (Homo sapiens, UniProt O15111)
NEK4 = NEK4 (Homo sapiens, UniProt P51957)
RPS6KA1 = RPS6KA1 (Homo sapiens, UniProt Q15418)
RPS6KA1, sequence (Q15418 whole entry): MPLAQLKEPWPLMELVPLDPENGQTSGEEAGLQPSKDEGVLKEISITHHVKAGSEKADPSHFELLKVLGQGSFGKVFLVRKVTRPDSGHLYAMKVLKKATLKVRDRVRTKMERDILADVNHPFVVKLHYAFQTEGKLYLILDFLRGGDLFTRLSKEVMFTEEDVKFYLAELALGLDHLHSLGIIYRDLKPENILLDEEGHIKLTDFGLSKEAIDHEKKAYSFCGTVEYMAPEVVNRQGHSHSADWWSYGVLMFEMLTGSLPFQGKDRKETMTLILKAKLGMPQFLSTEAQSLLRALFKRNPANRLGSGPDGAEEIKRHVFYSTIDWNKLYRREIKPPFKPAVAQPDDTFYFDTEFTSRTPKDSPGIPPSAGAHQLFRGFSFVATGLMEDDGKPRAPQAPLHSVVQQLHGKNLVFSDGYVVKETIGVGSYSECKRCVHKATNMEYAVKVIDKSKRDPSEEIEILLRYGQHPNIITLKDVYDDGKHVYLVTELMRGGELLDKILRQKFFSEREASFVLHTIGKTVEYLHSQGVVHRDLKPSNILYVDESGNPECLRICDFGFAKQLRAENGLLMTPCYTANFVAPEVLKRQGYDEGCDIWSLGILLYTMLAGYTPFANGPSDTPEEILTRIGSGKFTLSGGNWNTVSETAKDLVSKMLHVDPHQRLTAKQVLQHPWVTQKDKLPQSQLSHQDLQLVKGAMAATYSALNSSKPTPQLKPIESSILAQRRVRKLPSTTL

ITK = ITK (Homo sapiens, UniProt Q08881)
MYLK2 = MYLK2 (Homo sapiens, UniProt Q9H1R3)
NEK9 = NEK9 (Homo sapiens, UniProt Q8TD19)
PKC-nu = PKC-nu (Homo sapiens, UniProt O94806)
EPHB1 = EPHB1 (Homo sapiens, UniProt P54762)
MEKK3 = MEKK3 (Homo sapiens, UniProt Q99759)
MEKK3, sequence (Q99759 whole entry): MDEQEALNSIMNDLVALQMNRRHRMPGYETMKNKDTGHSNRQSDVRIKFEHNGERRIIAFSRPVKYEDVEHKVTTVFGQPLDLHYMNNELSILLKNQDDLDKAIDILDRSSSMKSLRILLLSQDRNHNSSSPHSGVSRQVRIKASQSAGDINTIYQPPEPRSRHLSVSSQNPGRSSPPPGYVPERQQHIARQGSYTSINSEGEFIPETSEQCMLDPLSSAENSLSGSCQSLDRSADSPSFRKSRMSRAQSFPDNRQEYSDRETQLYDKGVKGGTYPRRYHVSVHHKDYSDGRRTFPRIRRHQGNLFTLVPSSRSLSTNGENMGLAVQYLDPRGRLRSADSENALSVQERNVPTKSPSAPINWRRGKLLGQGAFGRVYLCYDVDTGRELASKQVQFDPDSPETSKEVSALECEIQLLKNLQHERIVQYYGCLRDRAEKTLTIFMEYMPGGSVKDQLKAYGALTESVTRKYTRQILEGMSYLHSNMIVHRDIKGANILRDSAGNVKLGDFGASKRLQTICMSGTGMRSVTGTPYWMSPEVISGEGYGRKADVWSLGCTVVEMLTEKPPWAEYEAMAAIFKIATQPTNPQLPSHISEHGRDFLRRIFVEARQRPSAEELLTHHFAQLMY

ACV-RL1 = ACV-RL1 (Homo sapiens, UniProt P37023)
RPS6KA4 = RPS6KA4 (Homo sapiens, UniProt O75676)
RPS6KA4, sequence (O75676 whole entry): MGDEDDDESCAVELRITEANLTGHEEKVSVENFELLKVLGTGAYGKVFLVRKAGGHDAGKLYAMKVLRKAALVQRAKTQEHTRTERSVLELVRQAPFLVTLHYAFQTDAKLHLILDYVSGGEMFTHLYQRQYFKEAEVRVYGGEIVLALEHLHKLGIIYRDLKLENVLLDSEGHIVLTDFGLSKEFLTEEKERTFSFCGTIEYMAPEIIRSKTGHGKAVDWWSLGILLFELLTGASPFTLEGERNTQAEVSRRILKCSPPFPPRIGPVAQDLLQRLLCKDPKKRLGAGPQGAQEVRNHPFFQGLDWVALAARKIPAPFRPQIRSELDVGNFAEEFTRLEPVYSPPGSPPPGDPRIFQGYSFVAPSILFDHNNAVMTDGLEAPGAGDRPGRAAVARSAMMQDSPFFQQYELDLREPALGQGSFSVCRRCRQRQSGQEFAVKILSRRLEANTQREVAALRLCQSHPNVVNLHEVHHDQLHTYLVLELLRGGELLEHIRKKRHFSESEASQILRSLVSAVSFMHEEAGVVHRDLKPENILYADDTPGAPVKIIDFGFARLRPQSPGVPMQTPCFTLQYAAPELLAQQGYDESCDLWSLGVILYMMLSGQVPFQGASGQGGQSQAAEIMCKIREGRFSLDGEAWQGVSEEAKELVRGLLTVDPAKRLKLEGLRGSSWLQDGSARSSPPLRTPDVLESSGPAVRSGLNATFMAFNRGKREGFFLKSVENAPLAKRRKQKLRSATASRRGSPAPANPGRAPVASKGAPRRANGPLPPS

TEC = TEC (Homo sapiens, UniProt P42680)
PDK1 = PDK1 (Homo sapiens, UniProt O15530)
PDK1, sequence (O15530 whole entry): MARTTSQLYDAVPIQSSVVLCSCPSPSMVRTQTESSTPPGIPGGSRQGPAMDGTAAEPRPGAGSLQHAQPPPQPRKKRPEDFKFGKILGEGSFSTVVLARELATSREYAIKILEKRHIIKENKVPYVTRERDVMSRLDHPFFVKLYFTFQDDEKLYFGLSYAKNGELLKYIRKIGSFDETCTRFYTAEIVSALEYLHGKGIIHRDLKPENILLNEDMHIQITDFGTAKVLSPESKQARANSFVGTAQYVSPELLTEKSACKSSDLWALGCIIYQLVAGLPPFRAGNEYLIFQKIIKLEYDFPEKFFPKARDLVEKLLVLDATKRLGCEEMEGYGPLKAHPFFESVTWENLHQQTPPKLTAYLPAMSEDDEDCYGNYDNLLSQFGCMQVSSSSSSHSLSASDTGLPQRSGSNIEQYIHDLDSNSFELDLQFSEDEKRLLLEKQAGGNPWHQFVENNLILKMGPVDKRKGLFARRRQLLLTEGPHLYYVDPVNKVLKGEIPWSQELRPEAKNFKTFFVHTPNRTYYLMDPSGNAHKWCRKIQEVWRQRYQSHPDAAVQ

SGK2 = SGK2 (Homo sapiens, UniProt Q9HBY8)
CDK7/CycH/MAT1 = CDK7/CycH/MAT1 (Homo sapiens, UniProt P50613)
ALK = ALK (Homo sapiens, UniProt Q9UM73)
PRKG2 = PRKG2 (Homo sapiens, UniProt Q13237)
STK17A = STK17A (Homo sapiens, UniProt Q9UEE5)
STK17A, sequence (Q9UEE5 whole entry): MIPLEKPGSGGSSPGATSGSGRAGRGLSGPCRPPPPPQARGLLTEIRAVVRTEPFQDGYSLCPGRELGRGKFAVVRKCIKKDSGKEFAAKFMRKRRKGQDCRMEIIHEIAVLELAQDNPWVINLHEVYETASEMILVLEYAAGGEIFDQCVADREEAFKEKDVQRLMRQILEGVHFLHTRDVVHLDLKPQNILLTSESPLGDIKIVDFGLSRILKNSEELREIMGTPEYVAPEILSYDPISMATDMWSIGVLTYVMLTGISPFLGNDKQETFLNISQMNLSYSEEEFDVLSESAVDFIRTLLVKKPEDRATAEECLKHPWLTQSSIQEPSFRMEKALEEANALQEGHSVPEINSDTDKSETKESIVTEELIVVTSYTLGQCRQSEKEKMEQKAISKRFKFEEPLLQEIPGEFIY

ASK1 = ASK1 (Homo sapiens, UniProt Q99683)
p38-gamma = p38-gamma (Homo sapiens, UniProt P53778)
RPS6KA6 = RPS6KA6 (Homo sapiens, UniProt Q9UK32)
AKT3 = AKT3 (Homo sapiens, UniProt Q9Y243)
AKT3, sequence (Q9Y243 whole entry): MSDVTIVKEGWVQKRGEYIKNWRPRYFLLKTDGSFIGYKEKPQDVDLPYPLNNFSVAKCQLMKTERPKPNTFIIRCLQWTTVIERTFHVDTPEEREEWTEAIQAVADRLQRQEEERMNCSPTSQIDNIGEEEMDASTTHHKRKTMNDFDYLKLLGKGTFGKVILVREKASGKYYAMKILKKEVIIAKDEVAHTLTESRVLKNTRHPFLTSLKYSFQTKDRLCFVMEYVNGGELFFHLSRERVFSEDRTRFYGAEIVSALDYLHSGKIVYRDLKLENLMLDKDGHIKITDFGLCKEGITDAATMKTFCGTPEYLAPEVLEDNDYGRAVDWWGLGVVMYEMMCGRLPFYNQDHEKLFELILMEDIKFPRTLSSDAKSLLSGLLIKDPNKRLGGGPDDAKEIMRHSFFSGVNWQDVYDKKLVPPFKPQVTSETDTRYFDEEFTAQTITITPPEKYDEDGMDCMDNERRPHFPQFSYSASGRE

CHK1 = CHK1 (Homo sapiens, UniProt O14757)
GRK3 = GRK3 (Homo sapiens, UniProt P35626)
CDK16/CycY = CDK16/CycY (Homo sapiens, UniProt Q00536)

MAP4K4, sequence (O95819 whole entry): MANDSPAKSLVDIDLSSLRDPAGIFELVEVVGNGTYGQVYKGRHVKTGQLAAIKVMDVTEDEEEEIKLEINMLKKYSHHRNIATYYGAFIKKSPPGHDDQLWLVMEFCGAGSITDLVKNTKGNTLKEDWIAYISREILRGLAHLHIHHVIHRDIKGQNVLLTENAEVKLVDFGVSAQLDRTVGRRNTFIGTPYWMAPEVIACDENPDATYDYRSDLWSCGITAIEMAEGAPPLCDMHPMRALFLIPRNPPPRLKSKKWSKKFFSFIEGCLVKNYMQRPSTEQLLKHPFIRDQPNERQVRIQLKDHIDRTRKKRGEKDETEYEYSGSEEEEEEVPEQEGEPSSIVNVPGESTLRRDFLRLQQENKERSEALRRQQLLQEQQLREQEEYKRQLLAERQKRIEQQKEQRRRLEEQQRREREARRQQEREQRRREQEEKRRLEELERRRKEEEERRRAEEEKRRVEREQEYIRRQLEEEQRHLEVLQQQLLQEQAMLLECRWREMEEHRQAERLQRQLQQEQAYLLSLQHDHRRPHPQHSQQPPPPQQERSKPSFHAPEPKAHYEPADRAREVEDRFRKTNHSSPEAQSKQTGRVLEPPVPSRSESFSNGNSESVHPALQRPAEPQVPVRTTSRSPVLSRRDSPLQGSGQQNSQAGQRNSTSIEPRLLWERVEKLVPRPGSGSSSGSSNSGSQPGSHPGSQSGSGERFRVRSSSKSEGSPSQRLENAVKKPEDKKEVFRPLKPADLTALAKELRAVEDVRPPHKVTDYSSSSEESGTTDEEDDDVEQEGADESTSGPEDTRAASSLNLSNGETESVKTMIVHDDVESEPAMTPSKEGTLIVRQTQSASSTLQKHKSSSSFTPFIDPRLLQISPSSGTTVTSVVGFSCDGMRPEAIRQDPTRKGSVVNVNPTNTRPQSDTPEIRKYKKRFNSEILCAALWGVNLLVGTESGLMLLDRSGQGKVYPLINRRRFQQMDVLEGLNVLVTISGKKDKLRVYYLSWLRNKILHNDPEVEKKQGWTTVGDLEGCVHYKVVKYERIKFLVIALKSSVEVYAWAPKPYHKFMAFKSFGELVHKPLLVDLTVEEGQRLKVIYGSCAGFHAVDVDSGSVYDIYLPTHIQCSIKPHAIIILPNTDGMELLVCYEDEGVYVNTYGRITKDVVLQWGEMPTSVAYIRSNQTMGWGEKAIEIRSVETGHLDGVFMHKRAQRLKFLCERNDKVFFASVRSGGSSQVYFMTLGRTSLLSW

COc1ccc2c3ccnc(Cl)c3n(CC#N)c2c1 [AnnH75]
residual activity at 1 µM, Mean (EGF-R): 104 % of control | residual activity at 1 µM, Mean (DMPK): 101 % of control | residual activity at 1 µM, Mean (VRK1): 89 % of control | residual activity at 1 µM, Mean (MAP4K4): 85 % of control | residual activity at 1 µM, Mean (LCK): 91 % of control | residual activity at 1 µM, Mean (YES): 83 % of control | residual activity at 1 µM, Mean (CAMK2A): 79 % of control | residual activity at 1 µM, Mean (CSF1-R): 106 % of control | residual activity at 1 µM, Mean (INSR-R): 97 % of control | residual activity at 1 µM, Mean (ROCK1): 73 % of control | residual activity at 1 µM, Mean (MAP3K1): 97 % of control | residual activity at 1 µM, Mean (WEE1): 100 % of control | residual activity at 1 µM, Mean (EPHB2): 99 % of control | residual activity at 1 µM, Mean (Aurora-B): 104 % of control | residual activity at 1 µM, Mean (IKK-alpha): 60 % of control | residual activity at 1 µM, Mean (NEK4): 98 % of control | residual activity at 1 µM, Mean (RPS6KA1): 63 % of control | residual activity at 1 µM, Mean (ITK): 95 % of control | residual activity at 1 µM, Mean (MYLK2): 90 % of control | residual activity at 1 µM, Mean (NEK9): 95 % of control | residual activity at 1 µM, Mean (PKC-nu): 87 % of control | residual activity at 1 µM, Mean (EPHB1): 89 % of control | residual activity at 1 µM, Mean (MEKK3): 97 % of control | residual activity at 1 µM, Mean (ACV-RL1): 91 % of control | residual activity at 1 µM, Mean (RPS6KA4): 95 % of control | residual activity at 1 µM, Mean (TEC): 93 % of control | residual activity at 1 µM, Mean (PDK1): 99 % of control | residual activity at 1 µM, Mean (SGK2): 99 % of control | residual activity at 1 µM, Mean (CDK7/CycH/MAT1): 100 % of control | residual activity at 1 µM, Mean (ALK): 98 % of control | residual activity at 1 µM, Mean (PRKG2): 85 % of control | residual activity at 1 µM, Mean (STK17A): 89 % of control | residual activity at 1 µM, Mean (ASK1): 104 % of control | residual activity at 1 µM, Mean (p38-gamma): 86 % of control | residual activity at 1 µM, Mean (RPS6KA6): 98 % of control | residual activity at 1 µM, Mean (AKT3): 104 % of control | residual activity at 1 µM, Mean (CHK1): 100 % of control | residual activity at 1 µM, Mean (GRK3): 92 % of control | residual activity at 1 µM, Mean (CDK16/CycY): 90 % of control
